Patent publication US11613525B2 (CTXT PTY LIMITED, priority 2018, dated 2023)
Where a name gives a salt, the structure may show the parent alone.

Experiments:
huSTING (HAQ) = huSTING (HAQ) (Homo sapiens (Human), UniProt Q86WV6, G230A/H232R/R293Q/R71H); experiment: THP-1 reporter cell line assay, THP-1 STING Lucia ISG cells; format: cell-based; conditions: THP-1 STING Lucia ISG cells; modified method, top concentration 40 μM, pin tool, EnVision; read-out: Cellular EC50 huSTING (HAQ)
huSTING (WT) = huSTING (WT) (Homo sapiens (Human), UniProt Q86WV6, H232R); experiment: THP-1 reporter cell line assay, THP-1-Dual KI-hSTING-R232 cells; format: cell-based; conditions: read-out: Cellular EC50 huSTING (WT)
Sequence of huSTING (WT) (Q86WV6 whole entry H232R): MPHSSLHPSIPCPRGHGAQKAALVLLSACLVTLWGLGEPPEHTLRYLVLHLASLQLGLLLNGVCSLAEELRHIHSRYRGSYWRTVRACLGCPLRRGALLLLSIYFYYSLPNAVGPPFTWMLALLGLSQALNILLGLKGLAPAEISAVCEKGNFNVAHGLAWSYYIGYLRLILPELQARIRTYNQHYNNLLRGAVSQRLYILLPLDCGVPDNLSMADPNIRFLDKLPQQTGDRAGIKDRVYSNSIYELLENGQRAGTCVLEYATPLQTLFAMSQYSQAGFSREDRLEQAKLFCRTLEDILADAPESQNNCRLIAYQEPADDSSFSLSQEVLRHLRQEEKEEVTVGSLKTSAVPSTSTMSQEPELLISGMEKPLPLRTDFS

Sequence of huSTING (HAQ) (Q86WV6 whole entry R71H/G230A/H232R/R293Q): as the sequence (Q86WV6 whole entry H232R) above, with R71H, G230A, R293Q counted along it

SMILES | EC50 (huSTING (HAQ)) [nM] | EC50 (huSTING (WT)) [nM]
COC(=O)c1sc2cccc(F)c2c1COc1ccc(C(N)=O)cc1 [Example 141, Methyl 3-((4-carbamoylphenoxy)methyl)-4-fluorobenzo[b]thiophene-2-carboxylate] | 1770 | 3340
CCOC(=O)c1sc2cccc(Cl)c2c1COc1ccc(C(N)=O)c(COC)c1 [Example 150, Ethyl 3-((4-carbamoyl-3-(methoxymethyl)phenoxy)methyl)-4-chlorobenzo[b]thiophene-2-carboxylate] | 550 | 489
CCOC(=O)c1sc2cccc(Cl)c2c1COc1ccc(C(N)=O)c(-c2cn[nH]c2)c1 [Example 151, Ethyl 3-((4-carbamoyl-3-(1H-pyrazol-4-yl)phenoxy)methyl)-4-chlorobenzo[b]thiophene-2-carboxylate] | 1820 | 3460
CC(C)[C@H](N)C(=O)OCOC(=O)c1sc2cccc(Cl)c2c1COc1c(F)cc(C(N)=O)cc1F [Example 152, ((L-Valyl)oxy)methyl 3-((4-carbamoyl-2,6-difluorophenoxy)methyl)-4-chlorobenzo[b]thiophene-2-carboxylate trifluoroacetate salt] | 967 | 53700
COc1cccc2sc(C(=O)OC(C)C)c(COc3ccc(C(N)=O)cc3)c12 [Example 154, Isopropyl 3-((4-carbamoylphenoxy)methyl)-4-methoxybenzo[b]thiophene-2-carboxylate] | 448 | 2050
COc1cccc2sc(C(=O)OC3CCCC3)c(COc3ccc(C(N)=O)cc3)c12 [Example 155, Cyclopentyl 3-((4-carbamoylphenoxy)methyl)-4-methoxybenzo[b]thiophene-2-carboxylate] | 230 | 3820
COc1cccc2sc(C(=O)OCc3ccccc3)c(COc3ccc(C(N)=O)cc3)c12 [Example 156, Benzyl 3-((4-carbamoylphenoxy)methyl)-4-methoxybenzo[b]thiophene-2-carboxylate] | 628 | 4510
COc1cccc2sc(C(=O)OCCN3CCOCC3)c(COc3ccc(C(N)=O)cc3)c12 [Example 157, 2-Morpholinoethyl 3-((4-carbamoylphenoxy)methyl)-4-methoxybenzo[b]thiophene-2-carboxylate] | 373 | 2030
COC(=O)N1CCC(OC(=O)c2sc3cccc(Cl)c3c2COc2c(F)cc(C(N)=O)cc2F)CC1 [Example 163, Methyl 4-((3-((4-carbamoyl-2,6-difluorophenoxy)methyl)-4-chlorobenzo[b]thiophene-2-carbonyl)oxy)piperidine-1-carboxylate] | 62 | 1560
CN1CC(OC(=O)c2sc3cccc(Cl)c3c2COc2c(F)cc(C(N)=O)cc2F)C1 [Example 164, 1-Methylazetidin-3-yl 3-((4-carbamoyl-2,6-difluorophenoxy)methyl)-4-chlorobenzo[b]thiophene-2-carboxylate] | 27 | 249
NC(=O)c1ccc(OCc2c(C(=O)NCc3ccccc3)sc3cccc(Br)c23)cc1 [Example 166, N-Benzyl-4-bromo-3-((4-carbamoylphenoxy)methyl)benzo[b]thiophene-2-carboxamide] | 9950 | 28900
C=Cc1cc(OCc2c(C(=O)OCC)sc3cccc(Cl)c23)ccc1C(N)=O [Example 168, Ethyl 3-((4-carbamoyl-3-vinylphenoxy)methyl)-4-chlorobenzo[b]thiophene-2-carboxylate] | 7440 | > 40000
Cc1ccc2sc(C(=O)OCOC(=O)C(C)(C)C)c(COc3ccc(C(N)=O)cc3)c2c1Cl [Example 174, (Pivaloyloxy)methyl 3-((4-carbamoylphenoxy)methyl)-4-chloro-5-methylbenzo[b]thiophene-2-carboxylate] | 4720 | 25600

Next, values leading:

EC50 (huSTING (HAQ)) [nM] | EC50 (huSTING (WT)) [nM] | SMILES
181 | 3120 | CCOC(=O)c1sc2cccc(C3CC3)c2c1COc1c(F)cc(C(N)=O)cc1F [Example 142, Ethyl 3-((4-carbamoyl-2,6-difluorophenoxy)methyl)-4-cyclopropylbenzo[b]thiophene-2-carboxylate]
23 | 925 | CCOC(=O)c1sc2c(C)ccc(Cl)c2c1COc1c(F)cc(C(N)=O)cc1F [Example 144, Ethyl 3-((4-carbamoyl-2,6-difluorophenoxy)methyl)-4-chloro-7-methylbenzo[b]thiophene-2-carboxylate]
746 | 3840 | CCOC(=O)c1sc2c(CO)ccc(Cl)c2c1COc1c(F)cc(C(N)=O)cc1F [Example 145, Ethyl 3-((4-carbamoyl-2,6-difluorophenoxy)methyl)-4-chloro-7-(hydroxymethyl)benzo[b]thiophene-2-carboxylate]
41 | 2150 | CCOC(=O)c1sc2c(COC)ccc(Cl)c2c1COc1c(F)cc(C(N)=O)cc1F [Example 146, Ethyl 3-((4-carbamoyl-2,6-difluorophenoxy)methyl)-4-chloro-7-(methoxymethyl)benzo[b]thiophene-2-carboxylate]
65 | 1620 | CCOC(=O)c1sc2c(O)ccc(Cl)c2c1COc1c(F)cc(C(N)=O)cc1F [Example 147, Ethyl 3-((4-carbamoyl-2,6-difluorophenoxy)methyl)-4-chloro-7-hydroxybenzo[b]thiophene-2-carboxylate]
613 | 797 | CCOC(=O)c1sc2c(OC)ccc(Cl)c2c1COc1c(F)cc(C(N)=O)cc1F [Example 149, Ethyl 3-((4-carbamoyl-2,6-difluorophenoxy)methyl)-4-chloro-7-methoxybenzo[b]thiophene-2-carboxylate]
129 | 207 | CCOC(=O)c1sc2c(C#N)ccc(Cl)c2c1COc1c(F)cc(C(N)=O)cc1F [Example 153, Ethyl 3-((4-carbamoyl-2,6-difluorophenoxy)methyl)-4-chloro-7-cyanobenzo[b]thiophene-2-carboxylate]
127 | 6150 | CCOC(=O)c1sc2cccc(OC)c2c1COc1c(F)cc(C(N)=O)cc1F [Example 165, Ethyl 3-((4-carbamoyl-2,6-difluorophenoxy)methyl)-4-methoxybenzo[b]thiophene-2-carboxylate]
189 | 450 | CCOC(=O)c1sc2cncc(Cl)c2c1COc1c(F)cc(C(N)=O)cc1F [Example 170, Ethyl 3-((4-carbamoyl-2,6-difluorophenoxy)methyl)-4-chlorothieno[2,3-c]pyridine-2-carboxylate]
55 | 208 | CC(C)(C)C(=O)OCOC(=O)c1sc2cccc(Cl)c2c1COc1c(F)cc(C(N)=O)cc1F [Example 173, (Pivaloyloxy)methyl 3-((4-carbamoyl-2,6-difluorophenoxy)methyl)-4-chlorobenzo[b]thiophene-2-carboxylate]
